Reference: patent US20220304957A1, “ANTI-CANCER COMPOSITIONS AND METHODS OF USE” (Board of Supervisors of Louisiana State University and …, priority 2019, published 2022)
Entries after “also recorded” stand apart in the source; their conditions may differ. Like-named read-outs stand apart in the source and are kept apart here.

How the values were obtained:
[1] = in vivo; cited from earlier work
[2] = Stability in human blood (HPLC); format: in vitro ADME; details: 50 μM added, 48-hour incubation
Method: Aliquots of 50 μM PP1 and FF in DMSO were added to 500 μl to heparinized human blood to a final concentration of 50 μM. Following incubation at 37° C. for the indicated time points, the samples were frozen at −80° C., and later prepared for HPLC-based detection of the compounds. Please note that FF is converted to FA in the presence of human blood. […] Data represent average values with standard deviation (n=3). panel B: Water solubility. FF and PP1, were added to water to a final concentration of 50 mM and sonicated in an ultrasonic bath (Branson 1510 Digital Heated Ultrasonic bath) for one hour at room temperature. The samples were then centrifuged for 10 minutes at 16000×g, and the supernatant filtered through 0.45 μm syringe filter. […] The PPAR transcriptional activity was determined in HepG2 cells by the JsTkpGL3 reporter plasmid, which contains a firefly luciferase gene driven by the PPRE, which consists of three copies of the J site from the apo-AII gene promoter. […] The luciferase activity was detected with Dual-Luciferase reporter assay system (Promega, Madison, Wis.), and the resulting luminescence measured with Synergy 2 microplate reader (BioTek, Winooski, Vt.). […]
In this experiment, 50 μM of PP1 and 50 μM of FF were incubated with human blood at […], at indicated time points. […] In contrast, nearly 25 μM of PP1 was still detected at the 48-hour time point (FIG. 4A; left panel).

[3] = test system: LN-229 human glioblastoma cells; details: for % cell death: 50 μM (single dose)
[4] = test system: PPAR responsive elements (PPRE); assay: PPAR luciferase assay (PPRE reporter) in HepG2 cells; format: cell-based; details: 25 μM, 24 hrs
Method: Aliquots of 50 μM PP1 and FF in DMSO were added to 500 μl to heparinized human blood to a final concentration of 50 μM. Following incubation at 37° C. for the indicated time points, the samples were frozen at −80° C., and later prepared for HPLC-based detection of the compounds. Please note that FF is converted to FA in the presence of human blood. […] Data represent average values with standard deviation (n=3). panel B: Water solubility. FF and PP1, were added to water to a final concentration of 50 mM and sonicated in an ultrasonic bath (Branson 1510 Digital Heated Ultrasonic bath) for one hour at room temperature. The samples were then centrifuged for 10 minutes at 16000×g, and the supernatant filtered through 0.45 μm syringe filter. Water solubilized PP1 and FF were subsequently processed for HPLC analysis (see Methods). Data represent average values with standard deviation (n=3). panel C: Effects of PP compounds on PPAR responsive elements (PPRE). The PPAR transcriptional activity was determined in HepG2 cells by the JsTkpGL3 reporter plasmid, which contains a firefly luciferase gene driven by the PPRE, which consists of three copies of the J site from the apo-AII gene promoter. To normalize for efficiency of transfection the cells were additionally transfected with the pSV40-GLuc (New England Biolabs, Ipswich, Mass.) control plasmid. […] The luciferase activity was detected with Dual-Luciferase reporter assay system (Promega, Madison, Wis.), and the resulting luminescence measured with Synergy 2 microplate reader (BioTek, Winooski, Vt.). Data represent average values with standard deviation (n=6).
PPAR Luciferase Assay—The PPAR transcriptional activity was determined by utilizing the JsTkpGL3 reporter plasmid, which contains a firefly luciferase gene driven by the PPAR responsive element (PPRE), which consists of three copies of the J site from the apo-AII gene promoter. Together with JsTkpGL3 plasmid HepG2 cells were transfected with pSV40-GLuc (New England Biolabs, Ipswich, Mass.) control plasmid expressing Gaussia luciferase under the control of the constitutive SV40 early promoter to normalize for efficiency of transfection. […] The luciferase activity was detected with Dual-Luciferase reporter assay system (Promega, Madison, Wis.), and the resulting luminescence measured with Synergy 2 microplate reader (BioTek, Winooski, Vt.).

[5] = Stability of stock solution in DMSO; format: physicochemical
LN-229 cells = assay: Cell morphology, peroxisome accumulation in LN-229; format: cell-based, human; details: DMEM 1 g/L glucose, 10% FBS
From the text: Red arrows indicated accumulation of peroxisomes (black dot-like structures) around the nucleus in PP3-treated cells but not in control (DMSO). (LN229 cells, DMEM 1 g/L glucose 10% FBS P/S).

[6] = Temozolomide pharmacokinetics and CNS penetration (literature); format: in vivo, human; details: from 20% of plasma concentration
From the text: An efficient treatment of GBM is difficult to develop for a series of reasons. First, GBM is characterized by many dysregulated pathways that can hardly be all blocked and repaired at the same time with a single therapy [Alifieris, C.; Trafalis, D. T. “Glioblastoma multiforme: pathogenesis and treatment” Pharmacol. Ther. 2015, 152, 63-82.]. Second, GBM partly consists of infiltrating cells that cannot easily be all removed by surgery. Third, GBM early diagnosis is not carried out routinely. Sensitive imaging techniques, such as MRI are still too expensive to be carried out on a regular basis over the whole population. Fourth, the optimization of a clinical protocol for GBM treatment requires the use of an accurate and representative preclinical GBM model. Currently used mouse and rat models are not appropriate because their tumors are typically ˜10^3-10^4 smaller than human GBM [Biasibetti, E.; Valazza, A.; Capucchio, M. T.; Annovazzi, L.; Battaglia. L.; Chirio, D.; Gallarate, M.; Mellai, M.; Muntoni, E.; Peira, E.; Riganti, C.; Schiffer, D.; Panciani, P.; Lanotte, M. “Comparison of Allogeneic and Syngeneic Rat Glioma Models by Using MRI and Histopathologic Evaluation” Comp. Med. 2017, 67, 147-156.]. […]

[7] = cited from earlier work

## CC(C)(Oc1ccc(C(=O)c2ccc(Cl)cc2)cc1)C(=O)O [FA, fenofibric acid]
[1]
  crossing of the blood brain tumor barrier (BBTB): do not cross

## CC(C)OC(=O)C(C)(C)Oc1ccc(C(=O)c2ccc(Cl)cc2)cc1 [FF, fenofibrate, reference compound]
[2]
  conversion to FA in human blood: almost all FF was converted to FA
[3]; 48 hours
  % cell death: 24+/−4%
[3]; 72 hours
  % cell death: 90+/−1%
[3]; 96 hrs
  % cell death: 99+/−1.2%

## CN(CC(O)C(O)C(O)C(O)CO)C(=O)C(C)(C)Oc1ccc(C(=O)c2ccc(Cl)cc2)cc1 [PP3, 2-[4-(4-chlorobenzoyl)phenoxy]-N,2-dimethyl-N-[(2S,3R,4R,5R)-2,3,4,5,6-pentahydroxyhexyl]propenamide]
[4]
  effect on PPAR responsive elements (PPRE): does not repress PPAR responsive elements; also recorded: does not share this PPAR-inhibitory activity
[5]
  stability dissolved in DMSO: quite unstable
LN-229 cells
  accumulation of peroxisomes: extensive accumulation of peroxisomes
[3]; 10 μM
  cytostatic effect: cytostatic activity

## Cn1nnc2c(C(N)=O)ncn2c1=O [TMZ, temozolomide]
[6]
  experimentally estimated log BB (Brain-Blood Distribution): around −0.7
[7]; 35 patients with malignant gliomas
  concentration in brain and cerebrospinal fluid, % of the plasma concentration: approximately 20%
[7]; oral administration
  elimination half-life: approximately 1.8 hours
